Results as given in article PMC3666173 (Basic research in cardiology, 2012).
No end group written: not given here.

What was measured:
[1] = molecular target: Cx43 hemichannels (C6-Cx43 cells) (Homo sapiens, UniProt P17302); assay: [Ca2+]i-triggered; type: cell-based
C6-Cx43 cells = details: A23187 2.2 μM, 5 min; ref [19], [49]; cited from earlier work
[2] = test system: pannexin-1 (Panx1) hemichannels (C6-Panx1 cells); assay: High [K+]e-triggered ATP release in C6-Panx1 cells; type: cell-based; details: [K+]e = 143 mM, carbenoxolone 10 μM, 30 min, 10Panx1 200 μM

Sequence of Cx43 hemichannels (C6-Cx43 cells) (P17302 whole entry): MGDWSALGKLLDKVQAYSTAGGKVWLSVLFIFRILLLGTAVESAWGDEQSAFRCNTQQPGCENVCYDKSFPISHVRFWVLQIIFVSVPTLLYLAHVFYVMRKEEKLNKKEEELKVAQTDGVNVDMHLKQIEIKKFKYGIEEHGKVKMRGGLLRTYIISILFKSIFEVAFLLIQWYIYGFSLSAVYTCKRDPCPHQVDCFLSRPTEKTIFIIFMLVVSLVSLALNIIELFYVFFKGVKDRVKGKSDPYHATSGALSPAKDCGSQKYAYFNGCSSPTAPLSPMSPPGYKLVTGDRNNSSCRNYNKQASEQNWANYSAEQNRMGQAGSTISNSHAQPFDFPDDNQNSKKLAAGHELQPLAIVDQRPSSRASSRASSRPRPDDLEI

For YGRKKRRQRRRKQIEIKKFK, the IC50 [1] was about 7 µM.
For `CNc1ccc2oc(C[C@H]3O[C@@]4(CC[C@H]3C)O[C@H]([C@H](C)C(=O)c3ccc[nH]3)[C@H](C)C[C@H]4C)nc2c1C(=O)O` [A23187], the “[Ca2+]i-triggered ATP release” value ([1]; Ca2+ ionophore, 2.2 μM, 5 min, C6-Cx43 vs C6-pLTR, n = 12) is listed as “triggered significant ATP release in C6-Cx43 but not in C6 cells stably transfected with the empty vector” and the “transient elevation of [Ca2+]i” value (C6-Cx43 cells) is listed as ~ 500 nM.
In the case of `CC1(C)[C@@H](OC(=O)CCC(=O)O)CC[C@]2(C)[C@H]3C(=O)C=C4[C@@H]5C[C@@](C)(C(=O)O)CC[C@]5(C)CC[C@@]4(C)[C@]3(C)CC[C@@H]12` [carbenoxolone], the “high [K+]e-triggered ATP release” value ([2]; n = 12) is reported as “suppressed” and the “high [K+]e-triggered ATP release” value ([2]; n = 12, listed as Cbx) is reported as “blocked”.
